# Test results from US11059848B2, “Artemisinic acid glycoconjugate compounds, process for preparation and use thereof” (Council of Scientific and Industrial Research, priority 2018, dated 2021).
# Read-outs that look alike come from different tables or passages of the source.
# Key:
# [1] = system: MCF7 (breast cancer cell line); test: Growth inhibition by MTT cytotoxicity assay, in vitro anticancer activity; assay type: cell-based
# Protocol: Compounds were dissolved in DMSO (Sigma) to prepare 50 mM concentrations stock solutions. All the further dilutions were also made in DMSO. During the treatment, the final concentration of DMSO was maintained <[…].
# Breast cancer cell line MCF7, maintained at NCCS, a national resource for providing cell lines, was grown in DMEM (GIBCO), MBA-MB-231 in RPMI (GIBCO) with 10% FBS, 100 U/mL penicillin and 100 μg/mL streptomycin and MCF10A in DMEM/F12 (Gibco) containing, horse Serum (10% final), EGF (20 ng/ml), Hydrocortisone ([…]), Cholera Toxin (100 ng/ml), Insulin (10 μg/ml) and Penicillin/Streptomycin mix (1 ml/100 ml) at 37° C. in a humid, 5% CO2 regulated incubator.
# The cytotoxic effect of the compounds was determined using MTT (3-(4, 5 dimethylthiazol-2-yl)-2-5 diphenyltetrazolium bromide) assay. Cells were seeded (4×10^3 per well) in 96 well plates. After 24 hours of seeding, cells were exposed with varying concentrations ([…]) of respective compounds for 48 hours in triplicates. Then, MTT solution (20 μL of 5 mg/mL stock for each well of 96 well plate) was added and further incubated for 3.5 hours in humid 5% CO2 incubator. Media containing MTT solution was then replaced by MTT solvent (iso-propanol, HCl and Triton X-100), incubated for 15 min at room temperature with gentle shaking for complete dissolution of Formazan. Absorbance was measured at 570 nm using a Thermo Scientific Multiskan GO Elisa plate reader and IC 50 was calculated by routine methods. All experiments were carried out at least in triplicate, and the percentage of viable cells was calculated as the mean with respect to the controls.
# [2] = Homo sapiens, MCF7 breast cancer cell line, MTT, 48 hours exposure, Table 1, read-out: IC50
# [3] = MCF7 breast cancer cell line, MTT, 48 hours exposure, table of Example 4, read-out: IC50
Compound,"IC50 [1, 2]","IC50 [1, 3]","IC50 ([1]; Homo sapiens, MCF7, MCF-7 breast cancer cell line, read-out: IC50 value, anticancer activity against MCF-7)","IC50 value less when compared with artimisinic acid ([1]; MCF7, reduction of IC50 relative to artimisinic acid)",melting point
"C=C(C(=O)NCc1cn([C@@H]2O[C@H](COC(C)=O)[C@@H](OC(C)=O)[C@H](OC(C)=O)[C@H]2OC(C)=O)nn1)[C@@H]1CC[C@@H](C)[C@@H]2CCC(C)=C[C@@H]21 [KTK-PA-2, (2R,3R,4S,5R,6R)-2-(acetoxymethyl)-6-(4-((2-((1R,4R,4aS,8aR)-4,7-dimethyl-1,2,3,4,4a,5,6,8a-octahydronaphthalen-1-yl)acrylamido)methyl)-1H-1,2,3-triazol-1-yl)tetrahydro-2H-pyran-3,4,5-triyl triacetate]",> 100 µM,> 100 µM,–,–,–
"C=C(C(=O)OCc1cn([C@@H]2O[C@@H](C)[C@H](OC(C)=O)[C@@H](OC(C)=O)[C@H]2OC(C)=O)nn1)[C@@H]1CC[C@@H](C)[C@@H]2CCC(C)=C[C@@H]21 [KTK-AA-7, (2R,3R,4R,5S,6S)-2-(4-(((2-((1R,4R,4aS,8aR)-4,7-Dimethyl-1,2,3,4,4a,5,6,8a-octahydronaphthalen-1-yl)acryloyl)oxy)methyl)-1H-1,2,3-triazol-1-yl)-6-methyltetrahydro-2H-pyran-3,4,5-triyl triacetate]",42 ± 2 µM,–,42 µM,more than 50%,89 to 92 °C
"C=C(C(=O)NCc1cn([C@@H]2O[C@H](COC(C)=O)[C@H](OC(C)=O)[C@H](OC(C)=O)[C@H]2OC(C)=O)nn1)[C@@H]1CC[C@@H](C)[C@@H]2CCC(C)=C[C@@H]21 [KTK-PA-3, (2R,3S,4S,5R,6R)-2-(acetoxymethyl)-6-(4-((2-((1R,4R,4aS,8aR)-4,7-dimethyl-1,2,3,4,4a,5,6,8a-octahydronaphthalen-1-yl)acrylamido)methyl)-1H-1,2,3-triazol-1-yl)tetrahydro-2H-pyran-3,4,5-triyl triacetate]",> 100 µM,> 100 µM,–,–,–
"C=C(C(=O)NCc1cn([C@@H]2O[C@H](COC(=O)c3ccccc3)[C@@H](OC(=O)c3ccccc3)[C@H](OC(=O)c3ccccc3)[C@H]2OC(=O)c2ccccc2)nn1)[C@@H]1CC[C@@H](C)[C@@H]2CCC(C)=C[C@@H]21 [KTK-PA-4, (2R,3R,4S,5R,6R)-2-((benzoyloxy)methyl)-6-(4-((2-((1R,4R,4aS,8aR)-4,7-dimethyl-1,2,3,4,4a,5,6,8a-octahydronaphthalen-1-yl)acrylamido)methyl)-1H-1,2,3-triazol-1-yl)tetrahydro-2H-pyran-3,4,5-triyl tribenzoate]",> 100 µM,> 100 µM,–,–,–
"C=C(C(=O)O)[C@@H]1CC[C@@H](C)[C@@H]2CCC(C)=C[C@@H]21 [KTK-AA- Artimisinic acid, Artemisinic acid]",> 100 µM,> 100 µM,–,–,–
"C=C(C(=O)OCc1cn([C@@H]2O[C@H](COC(=O)c3ccccc3)[C@H](OC(=O)c3ccccc3)[C@H](OC(=O)c3ccccc3)[C@H]2OC(=O)c2ccccc2)nn1)[C@@H]1CC[C@@H](C)[C@@H]2CCC(C)=C[C@@H]21 [KTK-AA-6, (2R,3S,4S,5R,6R)-2-((benzoyloxy)methyl)-6-(4-(((2-((1R,4R,4aS,8aR)-4,7-dimethyl-1,2,3,4,4a,5,6,8a-octahydronaphthalen-1-yl)acryloyl)oxy)methyl)-1H-1,2,3-triazol-1-yl)tetrahydro-2H-pyran-3,4,5-triyl tribenzoate]",> 100 µM,> 100 µM,–,–,–
"C=C(C(=O)OCc1cn([C@@H]2O[C@H](COC(C)=O)[C@@H](OC(C)=O)[C@H](OC(C)=O)[C@H]2OC(C)=O)nn1)[C@@H]1CC[C@@H](C)[C@@H]2CCC(C)=C[C@@H]21 [KTK-AA-4, (2R,3R,4S,5R,6R)-2-(acetoxymethyl)-6-(4-(((2-((1R,4R,4aS,8aR)-4,7-dimethyl-1,2,3,4,4a,5,6,8a-octahydronaphthalen-1-yl)acryloyl)oxy)methyl)-1H-1,2,3-triazol-1-yl)tetrahydro-2H-pyran-3,4,5-triyl triacetate]",> 100 µM,> 100 µM,–,–,–
"C=C(C(=O)OCc1cn([C@@H]2O[C@H](COC(C)=O)[C@H](OC(C)=O)[C@H](OC(C)=O)[C@H]2OC(C)=O)nn1)[C@@H]1CC[C@@H](C)[C@@H]2CCC(C)=C[C@@H]21 [KTK-AA-2, (2R,3S,4S,5R,6R)-2-(acetoxymethyl)-6-(4-(((2-((1R,4R,4aS,8aR)-4,7-dimethyl-1,2,3,4,4a,5,6,8a-octahydronaphthalen-1-yl)acryloyl)oxy)methyl)-1H-1,2,3-triazol-1-yl)tetrahydro-2H-pyran-3,4,5-triyl triacetate]",> 100 µM,> 100 µM,–,–,–
